# Experiments:
# Format in all cases: in vivo, mouse
# Male CD1 mice [1] = test: colonic propulsion assay (glass bead expulsion test); conditions: for increase of expulsion time from controls: subcutaneous, 30 minutes prior to glass bead expulsion test
# From the text: The gastrointestinal transit model described in this report is a method for evaluating a test compounds ability to alter colonic propulsive motility. This model is designed to identify pharmacological agents that produce inhibitory effects on propulsive motor activity and is an excellent predictor of drugs that may be useful for the therapy of irritable bowel syndrome. This model can be modified to identify antagonists of constipative drugs or diarrhea producing drugs. In this study, Compound 112 was tested for its ability to affect colonic transport.
# Male CD1 mice (Harlan) 12 weeks of age were used for this study. Mice were kept on a 12 hr light dark cycle and fed ad libitum.
# Compound 112 was administered 30 minutes prior to the colonic propulsion study. After dosing, a 3 mm glass bead was inserted through the anus to a depth of 2 cm into the distal colon using a pre-measured plastic rod. […] A cutoff of 30 minutes was used. Data are expressed as the average ±SEM for each treatment. Data were averaged and analyzed by ANOVA followed by a post-hoc Tukey's test with a p value of less then […] indicating a statistical difference.
# Compound 112 was compared to morphine, topfisopam, propentofylline, pentoxyfylline, and theophylline in the colonic propulsion assay. Drugs were administered subcutaneously at the indicated doses 30 minutes prior to the colonic propulsion assay.
# Male CD1 mice [2] = test: micturition model of overactive bladder; conditions: 1 hr period after furesomide
# From the text: Micturition is a model of overactive bladder and is achieved through complex neurological mechanisms involving somatic, autonomic and central components. Disorders of micturition can roughly be classified as disturbances of bladder storage or of emptying. Failure to store urine may lead to various forms of incontinence, the main forms of which are urge and stress incontinence. Antimuscarinics are the mainstay of pharmacological treatment of the overactive bladder syndrome, which is characterized by urgency, frequency, and urge incontinence. The present study describes the activity of Compound 112 in an animal model of incontinence.
# Male CD1 mice (Harlan Sprague Dawley, Indianapolis, Ind.) 12 weeks of age were used for these studies. This study was multiplexed with the pulmonary inflammation study. Animals were housed five per cage, kept on a standard 12 hr light cycle. Sample size was 6 animals per group.
# Mice were injected with Compound 112 or vehicle solution as described, and then injected with 1 ml of water (s.c). Furesomide (SigmaAldrich) was formulated at a concentration of 1 mg/ml in water and injected ip at a volume of 10 ml/kg within 5 minutes after drug and water administration. […] Data were averaged and analyzed by ANOVA followed by a post-hoc Tukey's test with a p value of […] indicating a statistical difference.
# CD1: ICR mice [3] = test: tail suspension test in mice
# From the text: There are a number of animal models of depression that are used to identify pharmacological agents that have clinical potential as anti-depressant agents. One such animal model is the mouse tail-suspension model. Mice, suspended by the tail, will rapidly develop behavioral despair that is characterized by immobility. This immobility is thought to reflect a state of lowered ‘mood’ (i.e., depression) in which animals have given up hope of escaping.
# (§1) In both assays, antidepressants increase the amount of struggle and the latency until the first extended immobility. These assays are considered to be good predictors for antidepressant activity and identifies nearly all antidepressant classes including tricyclics, SSRIs, 5-HT1A receptor agonists, and MAOIs.
# (§2) CD1: ICR mice from Harlan 12 weeks of age. Animals were dosed with Compound 112, 30 minutes prior to tail suspension analysis or forced swim test.
# For the tail suspension test, a clip was attached to each mouse tail. Mice (2 per run) were suspended from the pressure transducer in an isolated plexiglass tail suspension chamber. Thirty seconds after suspending the mouse from the transducer, struggle activity was monitored via the transducer that was connected to a computer. The following parameters were measured: 1) number of despair events lasting 5 seconds or longer; 2) Total time in despair; and average time in despair. Data were averaged and analyzed by ANOVA followed by a post-hoc Tukey's test with a p value of less then […] indicating a statistical difference.
# Male C57/B16 mice = test: experimental autoimmune encephalomyelitis (EAE), animal model of multiple sclerosis, open-field analysis; conditions: daily administration at 6 and 30 mg/kg
# From the text: Experimental autoimmune encephalomyelitis (EAE) is an animal model of multiple sclerosis. This model is produced by administering a myelin basic protein peptide (MBP) fragment that induces an autoimmune response directed to the myelin sheath surrounding motor neurons. Demyelination of neurons within the CNS leads to impaired locomotor function and mirrors symptoms of the human disease. The disease, and the model, appears in exacerbations and remissions and is characterized by loss of nerve conduction and chronic progression of disability. In this study, we assessed the progression of locomotor dysfunction in mice subjected to EAE and treated with an illustrative compound of the invention.
# Male C57/B16 mice (Harlan Sprague Dawley, Indianapolis, Ind.) 8 weeks of age were used for these studies. […]
# Open-field assessments were conducted on days 7, 14, 21 and 28. Mice were evaluated by activity in an open-field activity monitor (Med-Associates-OFA ENV-510). Mice were place in the activity monitor for 15 minutes and a variety of open-field behaviors were monitored including distance traveled, ambulatory time, rearing behavior, time in center of field and stereotypic behavior. Data were averaged and analyzed by ANOVA followed by a post-hoc Tukey's test with a p value of less then […] indicating a statistical difference.
# CD1: ICR mice [4] = test: forced swim test in mice
# Experimental: FIG. 2 illustrates forced swim test in mice. Mice are administered illustrative compounds of the invention and subjected to the forced swim test for 6 minutes with activity timed for the duration of the test. Compound 112 was administered 30 minutes prior to the swim test.
# The forced swim test is another commonly used animal model for detecting anti-depressant activity of pharmacological agents. This test is complimentary to the tail suspension test. When mice are required to swim in a container with no route of escape they develop a behavioral despair that is characterized by immobility except for small movements needed to remain afloat. This immobility is thought to reflect a state of lowered ‘mood’ (i.e., depression) in which animals have given up hope of escaping. Forced swim test immobility is attenuated by a variety of clinically active antidepressants.
# as §1, §2
# mice = test: acetylcholine writhing assay
# Experimental: Experiments were conducted to collect data in an animal model that reflects the gastrointestinal pain component of IBS. In this model, mice were injected intraperitoneally with acetylcholine. Acetylcholine evokes contractions of smooth muscle in the gastrointestinal tract. These contractions are painful and are expressed as a writhing response. Two measurements are made in this model: 1) time to onset of writhing and 2) total writhing time. In these studies, mice were treated with Compound 112 prior to acetylcholine administration and time to onset and total time writhing were measured.
# Compound 112 was tested for its ability to attenuate acetylcholine induce writhing. The anti-writhing response was compared to propentofylline, pentoxyfylline and theophylline. All drugs were administered subcutaneously 30 minutes prior to acetylcholine administration. Acetylcholine was administered at a dose of 3 mg/kg (IP). Acetylcholine writhing was measured for a 10 minute time period. Time to onset and total writhing time were recorded.
# Compound 112 was administered via both routes 30 minutes prior to acetylcholine administration. Acetylcholine was administered at a dose of 3 mg/kg (IP). Acetylcholine writhing was measured for a 10 minute time period. Time to onset and total writhing time were recorded.
# [5] = subcutaneous, 30 minutes prior to acetylcholine 3 mg/kg IP
smiles,measurement,setting,value
"CCC1C(C)=NN=C(c2ccc(OC)c(OC)c2)c2cc(OC)c(OC)cc21 (centres unmarked) [tofisopam, reference compound]",increase of expulsion time from controls,Male CD1 mice [1],less than 3 fold
CCOCn1cnc2c1c(=O)n(CCCCC(C)(C)O)c(=O)n2C [Compound 112],number of urination events,Male CD1 mice [2],significantly reduced
same,urinary volume,Male CD1 mice [2],significantly reduced
same,number of despair events,"CD1: ICR mice [3]; 6 mg/kg, dosed 30 minutes before test",reduced
same,despair time,"CD1: ICR mice [3]; 6 and 30 mg/kg, dosed 30 minutes before test",significantly decreased
same,anti-depressant activity,CD1: ICR mice [3]; higher doses (≧30 mg/kg),lost
same,antidepressant activity,CD1: ICR mice [3]; lower doses (6 and 10 mg/kg),observed
same,development of locomotor dysfunction,Male C57/B16 mice,significantly attenuated
same,expulsion of a colonically inserted glass bead,"Male CD1 mice [1]; 30 and 100 mg/kg, 30 minutes after administration",significantly slowed
same,extension of expulsion time,"Male CD1 mice [1]; 30 and 100 mg/kg, vs vehicle",> 5 fold
same,increase of expulsion time from controls,Male CD1 mice [1],5 fold
same,anti-depressant activity,CD1: ICR mice [4]; higher doses (≧30 mg/kg),lost
same,antidepressant activity,CD1: ICR mice [4]; lower doses (6 and 10 mg/kg),observed
same,"potency, oral vs subcutaneous administration",mice; 30 minutes prior to acetylcholine 3 mg/kg IP,significantly more potent
same,activity on onset time,"mice; SC, 30 mg/kg",produced activity
same,activity on onset time,"mice; oral, 10 mg/kg",significant activity
same,activity on acetylcholine induced writhing,mice; [5],had activity
same,"overall potency vs theophylline, pentoxyfylline and propentofylline",mice; [5],more potent
same,"potency in attenuating writhing time vs propentofylline, pentoxyfylline and theophylline",mice; [5],significantly more potent
same,"potency in delaying onset of writhing vs propentofylline, pentoxyfylline and theophylline",mice; [5],significantly more potent
"CCCn1cnc2c1c(=O)n(CCCCC(C)=O)c(=O)n2C [propentofylline, reference compound]",activity on acetylcholine induced writhing,mice; [5],had activity
"CC(=O)CCCCn1c(=O)c2c(ncn2C)n(C)c1=O [pentoxyfylline, reference compound]",activity on acetylcholine induced writhing,mice; [5],had activity
"Cn1c(=O)c2[nH]cnc2n(C)c1=O [theophylline, reference compound]",activity on acetylcholine induced writhing,mice; [5],had activity

# — patent US20070105878A1, “Purine formulations and methods for managing disorders” (priority 2005, published 2007)
